The target in test [1] is T1, MKNK1 (Homo sapiens, UniProt Q9BUB5, T385D).
T1 construct: GST (N); purchased Carna Biosciences 02-145; host or cells: insect cells (baculovirus expression system)
Put plainly: MKNK1 kinase high ATP assay (TR-FRET-based). It is filed as biochemical. To be noted: 2 mM ATP, 15 min preincubation. An outline of the steps:
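TR-FRET read-out (anti-phospho-S6 Ser236 antibody, Eu/XL665) of biotin-peptide phosphorylation (0.06 μM) at high ATP (2 mM final). Enzyme was GST-MKNK1 full length, T344D, pre-bound to compound for 15 min before a 30 min reaction at 22 °C, pH 7.5. Inhibition scaled between no-inhibitor (0%) and no-enzyme (100%) wells.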
(Time-resolved FRET reads energy transfer from a long-lived donor to a nearby acceptor.)

Test [2] deals with T1, MKNK1. The test can be described thus: MKNK1 kinase assay (MKNK1 TR-FRET assay). The format is biochemical. The settings on record: 10 μM ATP, 15 min preincubation.

For orientation: IC50 means the concentration at which inhibition is half-maximal. High values mean lower potency, low ones higher potency.

T1 sequence (Q9BUB5 1-424 isoform Q9BUB5-2 T344D): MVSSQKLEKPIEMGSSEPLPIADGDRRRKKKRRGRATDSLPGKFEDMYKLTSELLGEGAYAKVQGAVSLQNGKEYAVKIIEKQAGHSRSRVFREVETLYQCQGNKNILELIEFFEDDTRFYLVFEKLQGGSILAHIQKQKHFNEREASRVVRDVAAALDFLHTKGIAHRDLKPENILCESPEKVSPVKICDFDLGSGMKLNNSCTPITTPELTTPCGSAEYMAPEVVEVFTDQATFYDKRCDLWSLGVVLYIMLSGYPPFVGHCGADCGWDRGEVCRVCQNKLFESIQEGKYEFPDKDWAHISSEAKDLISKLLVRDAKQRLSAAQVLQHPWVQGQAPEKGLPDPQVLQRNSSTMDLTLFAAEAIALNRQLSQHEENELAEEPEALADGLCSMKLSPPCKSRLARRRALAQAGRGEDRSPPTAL

With `CC(C)(C)N1CCN(c2nccc3oc(-c4cnc5ccc(OC[C@H]6CCC(=O)N6)nn45)cc23)CC1` [III-63, (5R)-5-[({3-[4-(4-tert-Butylpiperazin-1-yl)furo[3,2-c]pyridin-2-yl]imidazo-[1,2-b]pyridazin-6-yl}oxy)methyl]pyrrolidin-2-one], the figures for the IC50 in test [1] (Table 2c) and in test [2] (Table 1c) were 12.6 nM and 4.3 nM, respectively.
Turning to `O=C1NC(COc2ccc3ncc(-c4cc5ccccc5o4)n3n2)CO1` (stereo not drawn) [Example I-4, 4-({[3-(1-Benzofuran-2-yl)imidazo[1,2-b]pyridazin-6-yl]oxy}methyl)-1,3-oxazolidin-2-one], the values for the 50% inhibitory concentration (IC50) in test [1] (Table 2a) and in test [2] (Table 1a) were 8.8 nM and 5.6 nM, respectively.
In the case of `C[C@@H]1COCCN1c1cccc2oc(-c3cnc4ccc(O[C@H]5C[C@H](N)C5)nn34)cc12` [II-50, trans-3-[(3-{4-[(3R)-3-methylmorpholin-4-yl]-1-benzofuran-2-yl}imidazo[1,2-b]pyridazin-6-yl)oxy]cyclobutanamine], the IC50 in test [1] (Table 2b) was found to be 50.6 nM; in test [2] (Table 1b) it was 39.1 nM.
Regarding `COC(=O)N1CCC[C@H]1CCOc1ccc2ncc(-c3cc4ccccc4o3)n2n1` [Example I-10, Methyl (2S)-2-(2-{[3-(1-benzofuran-2-yl)imidazo[1,2-b]pyridazin-6-yl]oxy}-ethyl)pyrrolidine-1-carboxylate], the results for the IC50 in test [1] (Table 2a) and in test [2] (Table 1a) were 9.9 nM and 3.2 nM, respectively.
On the same counts, the results for `O=C(CO)N1CCC[C@H]1CCOc1ccc2ncc(-c3cc4ccccc4o3)n2n1` [Example I-59, 1-[(2S)-2-(2-{[3-(1-Benzofuran-2-yl)imidazo[1,2-b]-pyridazin-6-yl]oxy}ethyl)pyrrolidin-1-yl]-2-hydroxyethanone] are 5.3 nM and 2.8 nM.
In the case of `CN(C)[C@H]1CCN(c2nccc3oc(-c4cnc5ccc(OC[C@H]6CCC(=O)N6)nn45)cc23)C1` [III-75, (5R)-5-{[(3-{4-[(3S)-3-(Dimethylamino)pyrrolidin-1-yl]furo[3,2-c]pyridin-2-yl}imidazo[1,2-b]pyridazin-6-yl)oxy]methyl}pyrrolidin-2-one], the figures for the IC50 in test [1] (Table 2c) and in test [2] (Table 1c) were 1.7 nM and 0.8 nM, respectively.
`CN(CCCO)c1nccc2oc(-c3cnc4ccc(OC[C@H]5CCC(=O)N5)nn34)cc12` [III-73, (5R)-5-{[(3-{4-[(3-Hydroxypropyl)(methyl)amino]furo[3,2-c]pyridin-2-yl}imidazo[1,2-b]pyridazin-6-yl)oxy]methyl}pyrrolidin-2-one]: the results for the IC50 in test [1] (Table 2c) and in test [2] (Table 1c) were 0.8 nM and 0.6 nM, respectively.
On the same counts, the results for `CS(=O)(=O)CCCOc1ccc2ncc(-c3cc4c(N5CCCCC5)nccc4o3)n2n1` [III-45, 6-[3-(methylsulfonyl)propoxy]-3-[4-(piperidin-1-yl)furo[3,2-c]pyridin-2-yl]imidazo[1,2-b]pyridazine] are 8.1 nM and 4.4 nM.
On the same counts, the results for `C[C@H](N)COc1ccc2ncc(-c3cc4c(N5CCCC5)nccc4o3)n2n1` [III-10, (2S)-1-({3-[4-(Pyrrolidin-1-yl)furo[3,2-c]pyridin-2-yl]imidazo[1,2-b]pyridazin-6-yl}oxy)propan-2-amine] are 63.5 nM and 15.4 nM.
